Assay results: PubChem BioAssay AID248 (DTP/NCI, 2004)
Several values for one entry are separate records, joined by “and”; a condition that tells them apart may be missing. Equal entries are not always repeated. Toxic doses and inconclusive results are not listed. No stated cut-off is given here; in the data, active means T/C of 150% or more; inactive means T/C below 125%.

System: L1210 leukemia ip in BDF1 mice, survival T/C
Test: NCI In Vivo Anticancer Drug Screen. Data for tumor model L1210 Leukemia (intraperitoneal) in B6D2F1 (BDF1) mice
Settings: endpoint: mean survival time, higher = longer survival
Summary of the method: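 Each compound was tested against a transplantable tumor grown in mice. The endpoint was survival, with treated animals benchmarked against vehicle controls as a simple ratio.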

[1] = dose: 100.0 mg/kg/injection, schedule: Q04DX003 (ip), vehicle: saline with Tween-80
[2] = dose: 200.0 mg/kg/injection, schedule: Q04DX003 (ip), vehicle: saline with Tween-80
[3] = dose: 400.0 mg/kg/injection, schedule: Q04DX003 (ip), vehicle: saline with Tween-80
[4] = dose: 100.0 mg/kg/injection, schedule: Q01DX009 (ip), vehicle: Klucel (hydroxypropylcellulose) (HPC)
[5] = dose: 100.0 mg/kg/injection, schedule: Q04DX003 (ip), vehicle: Klucel (hydroxypropylcellulose) (HPC)
[6] = dose: 200.0 mg/kg/injection, schedule: Q01DX009 (ip), vehicle: Klucel (hydroxypropylcellulose) (HPC)
[7] = dose: 200.0 mg/kg/injection, schedule: Q04DX003 (ip), vehicle: Klucel (hydroxypropylcellulose) (HPC)
[8] = dose: 400.0 mg/kg/injection, schedule: Q01DX009 (ip), vehicle: Klucel (hydroxypropylcellulose) (HPC)
[9] = dose: 400.0 mg/kg/injection, schedule: Q04DX003 (ip), vehicle: Klucel (hydroxypropylcellulose) (HPC)
[10] = dose: 100.0 mg/kg/injection, schedule: Q04DX003 (ip), vehicle: saline
[11] = dose: 200.0 mg/kg/injection, schedule: Q04DX003 (ip), vehicle: saline
[12] = dose: 400.0 mg/kg/injection, schedule: Q04DX003 (ip), vehicle: saline
[13] = dose: 50.0 mg/kg/injection, schedule: Q01DX009 (ip), vehicle: saline with Tween-80
[14] = dose: 100.0 mg/kg/injection, schedule: Q01DX009 (ip), vehicle: saline with Tween-80
[15] = dose: 25.0 mg/kg/injection, schedule: Q01DX009 (ip), vehicle: Klucel (hydroxypropylcellulose) (HPC)
[16] = dose: 200.0 mg/kg/injection, schedule: Q01DX009 (ip), vehicle: saline with Tween-80
[17] = dose: 100.0 mg/kg/injection, schedule: Q01DX001 (ip), vehicle: saline
[18] = dose: 200.0 mg/kg/injection, schedule: Q01DX001 (ip), vehicle: saline

Measured: T/C

[Cl][Pd][Cl].[NH-]C1CCCCC1.[NH-]C1CCCCC1
inactive: dose: 50.0 mg/kg/injection, schedule: Q04DX002 (ip), vehicle: Klucel (hydroxypropylcellulose) (HPC) 94 % of control | dose: 100.0 mg/kg/injection, schedule: Q04DX002 (ip), vehicle: Klucel (hydroxypropylcellulose) (HPC) 102 % of control | dose: 200.0 mg/kg/injection, schedule: Q04DX002 (ip), vehicle: Klucel (hydroxypropylcellulose) (HPC) 87 % of control

C=C(C)C(=O)OCC1COc2c(cc(O)c(C)c2C)C1 (stereo not drawn)
inactive: [1] 107 % of control | [2] 98 % of control | [3] 98 % of control

Nc1nc2ncc(CNc3cnc(C(=O)NC(CCC(=O)O)C(=O)O)nc3)nc2c(=O)[nH]1 (stereo not drawn)
inactive: dose: 50.0 mg/kg/injection, schedule: Q01DX009 (ip), vehicle: alkali diluted with saline 107 % of control | dose: 100.0 mg/kg/injection, schedule: Q01DX001 (ip), vehicle: saline with Tween-80 103 % of control | dose: 200.0 mg/kg/injection, schedule: Q01DX001 (ip), vehicle: saline with Tween-80 112 % of control

CCOC(=O)c1c[nH]c2cc(Cl)ccc2c1=O
inactive: [4] 97 % of control | [5] 98 % of control | [6] 100 % of control | [7] 102 % of control | [8] 98 % of control | [9] 96 % of control

CP1(=O)CCC(=O)C1 (stereo not drawn)
inactive: [10] 98 % of control | [11] 110 % of control | [12] 104 % of control

CNC(Cc1ccccc1)c1ccccc1 (stereo not drawn)
inactive: dose: 25.0 mg/kg/injection, schedule: Q01DX009 (ip), vehicle: saline with Tween-80 94 % of control | [13] 101 % of control | [14] 99 % of control

CCCCCCCCCCCCCCCOc1cccc(OCCCCCCCCCCCCCCC)c1
inactive: dose: 50.0 mg/kg/injection, schedule: Q01DX001 (ip), vehicle: Klucel (hydroxypropylcellulose) (HPC) 92 % of control | dose: 100.0 mg/kg/injection, schedule: Q01DX001 (ip), vehicle: Klucel (hydroxypropylcellulose) (HPC) 92 % of control | dose: 200.0 mg/kg/injection, schedule: Q01DX001 (ip), vehicle: Klucel (hydroxypropylcellulose) (HPC) 92 % of control

CCC(=O)Oc1ccc(/C=N/NC(N)=S)nc1
inactive: dose: 100.0 mg/kg/injection, schedule: Q04DX002 (ip), vehicle: saline with Tween-80 113 % of control

CCCC1C(CC)CC(CC)C(O)C1(CC)CO (stereo not drawn)
inactive: dose: 100.0 mg/kg/injection, schedule: Q01DX009 (ip), vehicle: other 98 % of control | dose: 200.0 mg/kg/injection, schedule: Q01DX009 (ip), vehicle: other 95 % of control | dose: 400.0 mg/kg/injection, schedule: Q01DX009 (ip), vehicle: other 87 % of control

BrC1C2C=CCC1CC2 (stereo not drawn)
inactive: dose: 100.0 mg/kg/injection, schedule: Q01DX009 (ip), vehicle: saline 91 % of control | [10] 96 % of control | dose: 200.0 mg/kg/injection, schedule: Q01DX009 (ip), vehicle: saline 97 % of control | [11] 96 % of control | dose: 400.0 mg/kg/injection, schedule: Q01DX009 (ip), vehicle: saline 94 % of control | [12] 94 % of control

CCCCNC(C)(C)C(S)c1ccc(Cl)cc1 (stereo not drawn)
inactive: dose: 12.0 mg/kg/injection, schedule: Q01DX009 (ip), vehicle: Klucel (hydroxypropylcellulose) (HPC) 104 % of control | [15] 108 % of control

COc1ccc(Cl)cc1/C=C/C=N/NC(=O)c1cccc(C)c1O
inactive: dose: 75.0 mg/kg/injection, schedule: Q01DX001 (ip), vehicle: carboxymethylcellulose (CMC) 86 % of control | dose: 150.0 mg/kg/injection, schedule: Q01DX001 (ip), vehicle: carboxymethylcellulose (CMC) 89 % of control | dose: 300.0 mg/kg/injection, schedule: Q01DX001 (ip), vehicle: carboxymethylcellulose (CMC) 86 % of control

COc1ccc(NC(=O)Oc2ccc(Br)cc2Br)c(OC)c1
inactive: [4] 108 % of control | [6] 113 % of control

CCCCOC(=O)/C=C/C(=O)OCCCC
inactive: [14] 97 % of control | [16] 101 % of control | dose: 400.0 mg/kg/injection, schedule: Q01DX009 (ip), vehicle: saline with Tween-80 111 % of control

c1ccc(COCCNCCOCc2ccccc2)cc1
inactive: dose: 12.5 mg/kg/injection, schedule: Q01DX009 (ip), vehicle: Klucel (hydroxypropylcellulose) (HPC) 100 % of control | dose: 12.5 mg/kg/injection, schedule: Q04DX003 (ip), vehicle: Klucel (hydroxypropylcellulose) (HPC) 107 % of control | [15] 96 % of control | dose: 25.0 mg/kg/injection, schedule: Q04DX003 (ip), vehicle: Klucel (hydroxypropylcellulose) (HPC) 94 % of control | dose: 50.0 mg/kg/injection, schedule: Q01DX009 (ip), vehicle: Klucel (hydroxypropylcellulose) (HPC) 95 % of control | dose: 50.0 mg/kg/injection, schedule: Q04DX003 (ip), vehicle: Klucel (hydroxypropylcellulose) (HPC) 95 % of control

CCCCCCCCCCCCCCCCCC[N+]1(CC)CCOCC1
inactive: dose: 3.13 mg/kg/injection, schedule: Q04DX002 (ip), vehicle: carboxymethylcellulose (CMC) 103 % of control and 87 % of control | dose: 6.25 mg/kg/injection, schedule: Q01DX001 (ip), vehicle: carboxymethylcellulose (CMC) 101 % of control | dose: 6.25 mg/kg/injection, schedule: Q01DX009 (ip), vehicle: carboxymethylcellulose (CMC) 93 % of control and 95 % of control | dose: 6.25 mg/kg/injection, schedule: Q04DX002 (ip), vehicle: carboxymethylcellulose (CMC) 100 % of control and 92 % of control | dose: 6.25 mg/kg/injection, schedule: Q04DX003 (ip), vehicle: carboxymethylcellulose (CMC) 98 % of control | dose: 12.5 mg/kg/injection, schedule: Q01DX001 (ip), vehicle: carboxymethylcellulose (CMC) 94 % of control | dose: 12.5 mg/kg/injection, schedule: Q01DX009 (ip), vehicle: carboxymethylcellulose (CMC) 93 % of control and 89 % of control | dose: 12.5 mg/kg/injection, schedule: Q04DX003 (ip), vehicle: carboxymethylcellulose (CMC) 100 % of control | dose: 25.0 mg/kg/injection, schedule: Q01DX001 (ip), vehicle: carboxymethylcellulose (CMC) 90 % of control | dose: 25.0 mg/kg/injection, schedule: Q04DX002 (ip), vehicle: carboxymethylcellulose (CMC) 94 % of control and 92 % of control | dose: 25.0 mg/kg/injection, schedule: Q04DX003 (ip), vehicle: carboxymethylcellulose (CMC) 89 % of control

C/C=C(\Br)C(=O)Nc1ccc(OCC)cc1
inactive: [17] 100 % of control | [18] 105 % of control

CC1(CO)C2CCC(CC2)C1CO (stereo not drawn)
inactive: dose: 100.0 mg/kg/injection, schedule: Q04DX003 (ip), vehicle: acetone 98 % of control | dose: 200.0 mg/kg/injection, schedule: Q04DX003 (ip), vehicle: acetone 96 % of control | dose: 400.0 mg/kg/injection, schedule: Q04DX003 (ip), vehicle: acetone 93 % of control

CC1OC(CO)C(O)C(O)C1NC(=O)c1ccccc1 (stereo not drawn)
inactive: [13] 98 % of control | [14] 103 % of control | [16] 103 % of control

O=[N+]([O-])c1ccc(C=Nc2ccc([N+](=O)[O-])cc2)cc1
inactive: [10] 90 % of control | [11] 86 % of control | [12] 93 % of control

Cn1nnn2c(-c3ccccc3)nnc12
inactive: [14] 97 % of control | [1] 105 % of control | [16] 105 % of control | [2] 97 % of control | [3] 100 % of control

Nc1ccc(OCCCc2c(-c3ccccc3)nc(N)[nH]c2=O)cc1
inactive: dose: 50.0 mg/kg/injection, schedule: Q01DX001 (ip), vehicle: saline 93 % of control | [17] 96 % of control | [10] 100 % of control | [18] 102 % of control | [11] 96 % of control | dose: 400.0 mg/kg/injection, schedule: Q01DX001 (ip), vehicle: saline 102 % of control | [12] 90 % of control

COc1cc(C(=O)N(C)OC)cc(OC)c1OC
inactive: dose: 100.0 mg/kg/injection, schedule: Q01DX001 (ip), vehicle: carboxymethylcellulose (CMC) 96 % of control | dose: 200.0 mg/kg/injection, schedule: Q01DX001 (ip), vehicle: carboxymethylcellulose (CMC) 91 % of control | dose: 400.0 mg/kg/injection, schedule: Q01DX001 (ip), vehicle: carboxymethylcellulose (CMC) 100 % of control

COC(=O)CCCCCCCC(=O)OCC#CC#CCOC(=O)CCCCCCCC(=O)OC
inactive: [4] 95 % of control | [5] 107 % of control | [6] 90 % of control | [7] 94 % of control | [8] 95 % of control | [9] 91 % of control
